# Measurements: US8518859B2, “Method for increasing yield of staple food crop” (National University Corporation Shizuoka University, priority 2009, dated 2013)
# Marks after values point to notes of the source that are not given here.
# Legend:
# [1] = tested on: Rice (cultivar: "Nipponbare"); test: Yield-increasing effect in soil culture of rice 3, treatment before planting (Example 4); assay type: in vivo, rice (genus Oryza)
# Protocol: Rice (cultivar: “Nipponbare”) was used in the test. Seeds thereof were sown in a nursery box, and after 16 days of cultivation, the resulting rice seedlings were transplanted to a pot (1/5000-a) and hydroponically cultured in a culture medium added with the AHX (1 mM) synthesized in the above for 2 weeks before settled-planting.
# After the above-described hydroponic culture, the resulting seedlings were settled-planted in soil (in 1/5000-a pot) which contains a fertilizer containing N (1,440 mg), P2O5 (12 mg), K2O (760 mg) and CaO (806 mg). and soil-cultured from Jun. 10, 2009 to Sep. 29, 2009 in the same manner as in Example 1. During the soil culture period, no treatment with AHX was performed, and water and nutrients were supplied once per day. It is noted here that the culture medium was not replaced.
# (§1) The cereal crops obtained by the soil culture were dried for 2 weeks and the following items were measured: brown rice mass; water content of brown rice; size and number of brown rice (per plant); panicle length; culm length; number of panicles; and mass of the above-ground part (n=6).
# [2] = tested on: Rice (cultivar: "Nipponbare"); test: Yield-increasing effect in hydroponic culture of rice (Example 1); assay type: in vivo, rice (genus Oryza)
# Protocol: Rice (cultivar: “Nipponbare”) was used in the test. Seeds thereof were sown in a nursery box, and after 20 days of cultivation, the resulting rice seedlings were transplanted one by one to a pot (1/5000-a) and cultivated for 1 week with tap water.
# After the cultivation with tap water, the thus obtained rice plants were cultured in a culture medium added with the AHX (50 μM), which was synthesized in the above, in an outdoor environment over a period of 97 days starting in July.
# During the periods from the 8th day to the 32nd day and the period from the 73rd day to the 97th day after the transplantation, the culture was carried out in a medium having a half concentration of the undiluted culture medium, and during the period from the 33rd day to the 72nd day, the undiluted culture medium was used.
# Water and nutrients were supplied once every 3 days. As the medium used for the addition, the culture medium for the AHX-treated section and the culture medium for the control section were respectively used in the AHX-treated section and the control section. It is noted here, however, that the culture medium was replaced once a week in the case of hydroponic culture.
# The cereal crops obtained by the culture were dried for 2 weeks and the following items were measured: brown rice mass; water content, carbon content and nitrogen content of brown rice; size and number of brown rice (per plant); leaf length; culm length; panicle length; number of panicles; tiller number; and mass of the above-ground and underground parts. Here, the size of brown rice means the mass per grain determined from the brown rice mass (g/100 brown rice grains) and the number of brown rice refers to a value obtained by dividing the brown rice weight (g/plant) by the brown rice weight (g/100 brown rice grains) (number of plants n=6).
# rice (Nipponbare) [3] = test: Yield-increasing effect in soil culture of rice 2 (Example 3); assay type: in vivo, rice (genus Oryza); details: for Brown rice weight (g/plant): soil culture Jun. 10 to Sep. 29, n=6; for Brown rice weight (g/100 brown rice grains) / Culm length (cm) / Mass of the above-ground part (g/plant) / Number of panicles (/plant) / Panicle length (cm): n=6; for Brown rice size: mass per grain
# Protocol: Soil culture was carried out from Jun. 10, 2009 to Sep. 29, 2009 in the same manner as in Example 1, except that seedlings of rice (Nipponbare) obtained by a 30-day cultivation were transplanted one by one to a soil (in 1/5000-a pot) which contains a fertilizer containing N (1,440 mg), P2O5 (12 mg), K2O (760 mg) and CaO (806 mg).
# Water and nutrients were supplied once a day. As the medium used for the addition, the culture medium for the AHX (5 μM)-treated section, the culture medium for the ICA (2 μM)-treated section and the culture medium the control section were respectively used in the AHX (5 μM)-treated section, the ICA (2 μM)-treated section and the control section. It is noted here that, unlike the case of hydroponic culture, the culture medium was not replaced.
# as §1
# [4] = tested on: seed potato (cultivar: "Danshaku"); test: Yield-increasing effect in potato (Example 5); assay type: in vivo, potato (genus Solanum)
# Protocol: A seed potato (cultivar: “Danshaku”) was cut into pieces of 30 g to 35 g in weight and they were each allowed to take roots in soil (in 1/2000-a pot) which contains a fertilizer containing N (960 mg), P2O5 (480 mg), K2O (640 mg) and MgO (320 mg). After 2-weeks of cultivation with tap water (after an above-ground part appeared), 2.74 mg (20 μmol) of AHX was dissolved in tap water and added to the pot every week. The Danshaku potato was cultured in an outdoor environment over a period of 12 weeks starting in January. The control section was treated with tap water only.
# After 12 weeks, the Danshaku potato was harvested to measure the tuber mass (for the whole potato and a group consisting of potatoes having a weight of not less than 20 g that were extracted), the length and mass of the above-ground part and the leaf length (n=5).
# wheat (Nourin 61) = test: Yield-increasing effect in wheat (Example 6); assay type: in vivo, wheat (genus Triticum); details: 6 pots
# Protocol: In 1/2000-a pots having crushed gravel in the bottom, 6 kg of a paddy-rice nursery soil was placed and, as a base fertilizer, 5-7-6 (N—P—K) was added in an amount of 4 g. The soil was sufficiently watered and 3 days later, 10 grains of wheat (Nourin 61) were sown in each pot. The wheat was cultured providing 300 ml of water once a week, and the seedlings were thinned 2 weeks after germination to leave 5 seedlings showing good growth. In the subsequent two weeks, a total of 6 pots were each treated once a week with AHX (5 μM), AHX (50 μM), AHX (1 mM), ICA (2 μM) or water only (control). Then, after culturing for 9 weeks providing 300 ml of just water once a week, the culture was continued for another 12 weeks by changing the amount of water to 500 ml once a week. It is noted here that, 2 weeks after the change was made in the amount of water, 0.75 g of ammonium sulfate was added to each pot as a panicle fertilizer. Further, the AHX (1 mM) treatment pots were subjected to an additional treatment with AHX (1 mM) for 2 weeks after the addition of the panicle fertilizer. The culture was carried out from Oct. 26, 2009 to May 12, 2010. After the completion of the culture, drying was performed for two weeks and the total wheat yield (g/5 plants) was measured.
# rice (Nipponbare) [5] = test: Yield-increasing effect in soil culture of rice 1 (Example 2); assay type: in vivo, rice (genus Oryza); details: AHX 50 μM
# Protocol: Soil culture was carried out for 97 days starting in July in the same manner as in Example 1, except that seedlings of rice (Nipponbare) were transplanted one by one to a soil (in 1/5000-a pot) which contains a fertilizer containing N (1,440 mg), P2O5 (12 mg), K2O (760 mg) and CaO (806 mg).
# Water and nutrients were supplied once a day. As the medium used for the addition, the culture medium for the AHX (50 μM)-treated section and the culture medium for the control section were respectively used in the AHX (50 μM)-treated section and the control section. It is noted here that, unlike the case of hydroponic culture, the culture medium was not replaced.
# The cereal crops obtained by the soil culture were dried for 2 weeks and the following items were measured in the same manner as in Example 1: brown rice mass; water content, carbon content and nitrogen content of brown rice; size and number of brown rice (per plant); leaf length; culm length; panicle length; number of panicles; tiller number; and mass of the above-ground part (n=7).
# [6] = 1 mM-treatment before planting, soil culture, n=6
# [7] = AHX 50 μM, hydroponic culture 97 days, n=6
# [8] = 20 μmol AHX per pot every week, 12 weeks, n=5
structure (smiles),measurement,setting,value
"O=c1[nH]nnc2nc[nH]c12 [AHX, 2-azahypoxanthine]",Number of brown rice (/plant),"[1]; 1 mM-treatment before planting, soil culture",2027 /plant
same,Brown rice weight (g/100 brown rice grains),[1]; [6],2.15 g/100 brown rice grains
same,Culm length (cm),[1]; [6],86 cm
same,Mass of the above-ground part (g/plant),[1]; [6],154 *^ g/plant
same,Number of panicles (/plant),[1]; [6],33 /plant
same,Panicle length (cm),[1]; [6],21.1 cm
same,Brown rice size,"[1]; 1 mM-treatment before planting, soil culture, mass per grain",21.5 mg
same,Increase of brown rice weight per plant,"[1]; 1 mM-treatment before planting, vs control",about 18%
same,Brown rice weight (g/plant),"[1]; 1 mM-treatment for 2 weeks before planting, then soil culture without AHX, n=6",43.6 * g/plant
same,Brown rice weight (g/plant),"[2]; AHX 50 μM in culture medium, hydroponic culture 97 days, n=6",34.6 * g/plant
same,Number of brown rice (/plant),"[2]; AHX 50 μM, hydroponic culture 97 days",1544 /plant
same,Brown rice weight (g/100 brown rice grains),[2]; [7],2.24 * g/100 brown rice grains
same,Culm length (cm),[2]; [7],60.7 cm
same,Leaf length (cm),[2]; [7],72.2 * cm
same,Mass of the above-ground part (g/plant),[2]; [7],103 *^ g/plant
same,Mass of underground part (g/plant),[2]; [7],8.56 g/plant
same,Number of panicles (/plant),[2]; [7],30.8 * /plant
same,Panicle length (cm),[2]; [7],21.4 * cm
same,Tiller number (/plant),[2]; [7],25.1 /plant
same,Brown rice size,"[2]; AHX 50 μM, hydroponic culture 97 days, mass per grain",22.4 mg
same,Increase of brown rice weight per plant,"[2]; AHX 50 μM, hydroponic culture, vs control",about 6%
same,Number of brown rice (/plant),"rice (Nipponbare) [3]; 5 μM, soil culture",2086 /plant
same,Brown rice weight (g/plant),rice (Nipponbare) [3]; 5 μM,46.3 * g/plant
same,Brown rice weight (g/100 brown rice grains),"rice (Nipponbare) [3]; 5 μM, soil culture",2.22 g/100 brown rice grains
same,Culm length (cm),"rice (Nipponbare) [3]; 5 μM, soil culture",89.8 cm
same,Mass of the above-ground part (g/plant),"rice (Nipponbare) [3]; 5 μM, soil culture",150 g/plant
same,Number of panicles (/plant),"rice (Nipponbare) [3]; 5 μM, soil culture",30.8 /plant
same,Panicle length (cm),"rice (Nipponbare) [3]; 5 μM, soil culture",20.8 cm
same,Increase of brown rice weight per plant,"rice (Nipponbare) [3]; 5 μM, soil culture, vs control",about 25%
same,Brown rice size,"rice (Nipponbare) [3]; 5 μM, soil culture",22.2 mg
same,Leaf length (cm),[4]; [8],7 cm
same,Length of the above-ground part (cm),[4]; [8],24 cm
same,Mass of the above-ground part (g/plant),[4]; [8],30 g/plant
same,Total mass (g · potatoes of not less than 20 g/plant),[4]; [8],85 * g · potatoes of not less than 20 g/plant
same,Total mass (g/plant) of tubers,"[4]; 2.74 mg (20 μmol) AHX per pot every week, 12 weeks, soil, n=5",95 * g/plant
same,Increase of total mass of potatoes,"[4]; treated with AHX for 12 weeks, vs control",about 19%
same,"Increase of mass, only potatoes of not less than 20 g","[4]; treated with AHX for 12 weeks, vs control section",about 40%
same,Seed Yield (g/5 plants),"wheat (Nourin 61); 5 μM, once a week for two weeks, soil pots",44.66 g/5 plants
same,Seed Yield (g/5 plants),"wheat (Nourin 61); 50 μM, once a week for two weeks, soil pots",45.68 g/5 plants
same,Seed Yield (g/5 plants),"wheat (Nourin 61); 1 mM, once a week for two weeks plus additional 2 weeks after panicle fertilizer",46.79 g/5 plants
same,Number of brown rice (/plant),rice (Nipponbare) [5]; soil culture 97 days,1864 /plant
same,Brown rice weight (g/100 brown rice grains),"rice (Nipponbare) [5]; soil culture 97 days, n=7",2.28 g/100 brown rice grains
same,Brown rice weight (g/plant),"rice (Nipponbare) [5]; soil culture 97 days, n=7",42.5 * g/plant
same,Culm length (cm),"rice (Nipponbare) [5]; soil culture 97 days, n=7",70.0 cm
same,Leaf length (cm),"rice (Nipponbare) [5]; soil culture 97 days, n=7",76.5 cm
same,Mass of the above-ground part (g/plant),"rice (Nipponbare) [5]; soil culture 97 days, n=7",122 *^ g/plant
same,Number of panicles (/plant),"rice (Nipponbare) [5]; soil culture 97 days, n=7",24.5 /plant
same,Panicle length (cm),"rice (Nipponbare) [5]; soil culture 97 days, n=7",21.1 cm
same,Tiller number (/plant),"rice (Nipponbare) [5]; soil culture 97 days, n=7",26.2 /plant
same,Brown rice size,"rice (Nipponbare) [5]; soil culture 97 days, mass per grain",22.8 mg
same,Increase of brown rice weight per plant,"rice (Nipponbare) [5]; soil culture, vs control",about 10%
"NC(=O)c1c[nH]cn1 [ICA, imidazole-4-carboxamide]",Number of brown rice (/plant),"rice (Nipponbare) [3]; 2 μM, soil culture",2104 /plant
same,Brown rice weight (g/plant),rice (Nipponbare) [3]; 2 μM,46.5 * g/plant
same,Brown rice weight (g/100 brown rice grains),"rice (Nipponbare) [3]; 2 μM, soil culture",2.21 g/100 brown rice grains
same,Culm length (cm),"rice (Nipponbare) [3]; 2 μM, soil culture",87.2 cm
same,Mass of the above-ground part (g/plant),"rice (Nipponbare) [3]; 2 μM, soil culture",152 g/plant
same,Number of panicles (/plant),"rice (Nipponbare) [3]; 2 μM, soil culture",30.5 /plant
same,Panicle length (cm),"rice (Nipponbare) [3]; 2 μM, soil culture",22.1 cm
same,Increase of grain weight per plant,"rice (Nipponbare) [3]; 2 μM, soil culture, vs control",about 26%
same,Brown rice size,"rice (Nipponbare) [3]; 2 μM, soil culture",22.1 mg
same,Seed Yield (g/5 plants),"wheat (Nourin 61); 2 μM, once a week for two weeks, soil pots",47.99 g/5 plants
